Test results published in patent US4918074A, “Polyazaheterocycle compounds” (Yoshitomi Pharmaceutical Industries, Ltd., priority 1984, dated 1990).

Legend:
[1] = test system: left ventricular dp/dt max; assay: Left ventricular dp/dt max after injection into left coronary artery of anesthetized dogs; type: in vivo; settings: intracoronary injection, anesthetized dog; dose to increase dp/dt max by 30% of effect of isoproterenol (0.1 μg)
Experimental: (§1) Dogs of either sex were anesthetized with sodium pentobarbital (30 mg/kg i.v.). Heparin (500 U/kg i.v.) was administered before making preparation. Under artificial respiration (18 strokes/min, 20 ml/kg tidal volume), left ventricular dp/dt max, and left coronary blood flow were measured (1). Test compounds were injected into the left coronary artery in a volume of 10 or 30 μl. The effects of compounds on coronary blood flow were observed and presented generally as ED50, a dose required to increase coronary blood flow by a half of the effects of nifedipine (3 μg). Similarly, the effects on dp/dt max were observed and shown as ED30, a dose required to increase dp/dt max by 30% of the efffects of isoproterenol (0.1 μg).

[2] = test system: ddY strain mice; assay: Acute toxicity in mice; type: in vivo; settings: five days after administration
Text: Compound (1), (10) and (23) were orally or intraperitoneally administered to ddY strain mice.

[3] = test system: Rabbit aorta; assay: Ca2+-agonistic and antagonistic activity in rabbit aorta; settings: compound 10^-6 M
Experimental: Rabbit aorta were isolated and cut into ring segments of about 2 mm. These preparations were suspended in 40 ml chambers filled with Krebs-Henseleit solution bubbled with a gas mixture of 95% O2 +5% CO2 (pH 7.4) and kept at 37° C. The contractile response to [K^+ ]o (9-48 mM) was measured in the absence or presence of test compounds (1).
That is, at lower [K^+ ]o these compounds augmented contractile force, however, at higher [K^+ ]o they produced only relaxation of aorta. [K^+ ]o, at which conversion of the effects of compounds (10^-6 M) occurred, was as follows.

[4] = test system: arterial blood pressure; assay: Hypotensive effects in the anesthetized dog; type: in vivo; settings: Canis lupus familiaris, iv, read-out: Hypotensive effect; for inhibition in vivo at 0.3 mg/kg: 300 μg/kg
Experimental: (§2) Adult mongrel dogs were anesthetized with sodium pentobarbital (30 mg/kg i.v.). Effects of test compounds on arterial blood pressure, coronary arterial blood flow, vertebral blood flow, renal blood flow, left ventricular dp/dt max (dp/dt max) and urine volume were observed. The compounds were administered intravenously (i.v.) or intraduodenally (i.d.).

[5] = test system: left coronary blood flow; assay: Coronary blood flow after injection into left coronary artery of anesthetized dogs; type: in vivo; settings: intracoronary injection, anesthetized dog; dose to increase CBF by half of the effect of nifedipine (3 μg)
Experimental: as §1

[6] = test system: coronary arterial blood flow; assay: Coronary vasodilating effects in the anesthetized dog; type: in vivo; settings: Canis lupus familiaris, iv, read-out: Increase in coronary blood flow; for change in vivo at 0.3 mg/kg: 300 μg/kg
Experimental: as §2

[7] = test system: left ventricular dp/dt max; assay: Cardiotonic effects in the anesthetized dog; type: in vivo; settings: Canis lupus familiaris, iv, read-out: Increase in dp/dt max; for change in vivo at 0.3 mg/kg: 300 μg/kg
Experimental: as §2

[8] = test system: Papillary muscle; assay: Ca2+-agonistic and antagonistic action in rabbit myocardium (papillary muscle); settings: compound 10^-4 M
Experimental: Papillary muscle was isolated from rabbit heart and suspended in 40 ml chamber filled with Krebs-Henseleit solution ([Ca^2+ ]o was elevated to 5 mM) bubbled with a gas mixture of 95% O2 +5% CO2 and kept at 37° C. The preparation was electrically driven at a rate of 0.5 Hz and developed tension was observed. [K^+ ]o was varied from 5.9 mM to 27 mM in the absence and presence of test compounds.
[K^+ ]o, at which conversion of the effects of compounds (10^-4 M) occurred, was as follows.

[9] = Oral bioavailability in words; type: in vivo
[10] = test system: blood pressure, coronary, renal and heart function; assay: Cardiovascular and renal activity in words; type: in vivo

SMILES | Increase in dp/dt max ED30 [1] [µg] | [K+]o at which conversion of Ca2+-agonistic to Ca2+-antagonistic action occurred [3] [mM] | Increase in CBF ED50 [5] [µg] | change in vivo at 0.3 mg/kg [6] [%] | change in vivo at 0.3 mg/kg [7] [%] | [K+]o at which conversion of Ca2+-agonistic to Ca2+-antagonistic action occurred [8] [mM] | other results
CC1=C(C(=O)OC(C)C)C(c2ccccc2C(F)(F)F)n2nccc2N1 (centres unmarked) [(10), 6-Isopropoxycarbonyl-5-methyl-7-(2-trifluoromethylphenyl)-4,7-dihydropyrazolo[1,5-a]pyrimidine] | 71 | 21 | 5.7 | 132 | 39 | 15 | Survival ([2]; intraperitoneal, 250 mg/kg): All mice survived; Survival ([2]; oral, 1,000 mg/kg): All mice survived; inhibition in vivo at 0.3 mg/kg [4]: 31%
CC(C)OC(=O)C1=C(COCCN)Nc2c(C#N)cnn2C1c1cccc(F)c1F (centres unmarked) [isopropyl 5-(2-aminoethoxymethyl)-3-cyano-7-(2,3-difluorophenyl)-4,7-dihydropyrazolo[1,5-a]pyrimidine-6-carboxylate] |  |  |  |  |  |  | Bioavailability by oral administration [9]: higher bioavailability by the oral administration; Coronary vasodilating activity [10]: high-selective coronary vasodilating activity; Diuretic activity [10]: potent diuretic activity; Heart-depressive activity [10]: weak heart-depressive activity; Hypotensive activity [10]: mild and long-lasting hypotensive activity; Renal blood flow increasing activity [10]: renal blood flow increasing activity
CC1=C(C(=O)OC(C)C)C(c2ccccc2Br)n2nccc2N1 (centres unmarked) [(27), 7-(2-Bromophenyl)-6-isopropoxycarbonyl-5-methyl-4,7-dihydropyrazolo[1,5-a]pyrimidine] | 103 | 22 | 7 |  |  | 12 | inhibition in vivo at 0.03 mg/kg ([4]; 30 μg/kg): 20%; change in vivo at 0.03 mg/kg ([6]; 30 μg/kg): 37%
CCCCOC(=O)C1=C(C)Nc2ccnn2C1c1ccccc1C(F)(F)F (centres unmarked) [(3), 6-Butoxycarbonyl-5-methyl-7-(2-trifluoromethylphenyl)-4,7-dihydropyrazolo[1,5-a]pyrimidine] |  | 24 |  |  |  |  | change in vivo at 0.1 mg/kg ([6]; 100 μg/kg): 36%; change in vivo at 0.1 mg/kg ([7]; 100 μg/kg): 20%
CC1=C(C(=O)OC2CCCC2)C(c2ccccc2F)n2nccc2N1 (centres unmarked) [(25), 6-Cyclopentyloxycarbonyl-7-(2-fluorophenyl)-5-methyl-4,7-dihydropyrazolo[1,5-a]pyrimidine] | 164 |  | 28 |  |  | 15 | 
CC1=C(C(=O)OC2CCCC2)C(c2ccccc2C(F)(F)F)n2nccc2N1 (centres unmarked) [(15), 6-Cyclopentyloxycarbonyl-5-methyl-7-(2-trifluoromethylphenyl)-4,7-dihydropyrazolo[1,5-a]pyrimidine] | 198 | 20 | 1.8 | 125 | 83 | 18 | inhibition in vivo at 0.3 mg/kg [4]: 20%
CCOC(=O)C1=C(C)Nc2ccnn2C1c1ccccc1C(F)(F)F (centres unmarked) [(1), 6-Ethoxycarbonyl-5-methyl-7-(2-trifluoromethylphenyl)-4,7-dihydropyrazolo[1,5-a]pyrimidine] |  | 23 |  |  |  | 16 | Survival ([2]; intraperitoneal, 250 mg/kg): All mice survived; Survival ([2]; oral, 1,000 mg/kg): All mice survived
CC1=C(C(=O)OC(C)C)C(c2ccccc2F)n2nccc2N1 (centres unmarked) [(23), 7-(2-Fluorophenyl)-6-isopropoxycarbonyl-5-methyl-4,7-dihydropyrazolo[1,5-a]pyrimidine] | 71 | 19 | 15 | 157 | 44 | 12 | Survival ([2]; intraperitoneal, 250 mg/kg): All mice survived; Survival ([2]; oral, 1,000 mg/kg): All mice survived; inhibition in vivo at 0.3 mg/kg [4]: 32%
CC1=C(C(=O)OC(C)(C)C)C(c2ccccc2C(F)(F)F)n2nccc2N1 (centres unmarked) [(13), 6-tert-Butoxycarbonyl-5-methyl-7-(2-trifluoromethylphenyl)-4,7-dihydropyrazolo[1,5-a]pyrimidine] | 70 | 24 | 22 | 34 | 39 | 14 | 
CCCOC(=O)C1=C(C)Nc2ccnn2C1c1ccccc1C(F)(F)F (centres unmarked) [(11), 5-Methyl-6-propoxycarbonyl-7-(2-trifluoromethylphenyl)-4,7-dihydropyrazolo[1,5-a]pyrimidine] |  | 22 |  |  |  |  | change in vivo at 0.01 mg/kg ([6]; 10 μg/kg): 36%
CC1=C(C(=O)OC(C)C)C(c2ccccc2C)n2nccc2N1 (centres unmarked) [(30), 6-Isopropoxycarbonyl-5-methyl-7-(2-methylphenyl)-4,7-dihydropyrazolo[1,5-a]pyrimidine] |  | 28 |  | 47 | 46 | 15 | 
